{"source": "patent US20220280661A1", "about": "“GLUCOCORTICOID RECEPTOR RADIOLIGANDS AND METHODS FOR THEIR PREPARATION AND USE” (The Regents of the University of California, priority 2019, published 2022)", "target": "T1, GR (Mus musculus, UniProt P06537)", "T1 construct": "from tissue; host or cells: tissues of C57BL6/J mice (intact or adrenalectomized), in vivo", "T1 sequence (P06537 1-792)": "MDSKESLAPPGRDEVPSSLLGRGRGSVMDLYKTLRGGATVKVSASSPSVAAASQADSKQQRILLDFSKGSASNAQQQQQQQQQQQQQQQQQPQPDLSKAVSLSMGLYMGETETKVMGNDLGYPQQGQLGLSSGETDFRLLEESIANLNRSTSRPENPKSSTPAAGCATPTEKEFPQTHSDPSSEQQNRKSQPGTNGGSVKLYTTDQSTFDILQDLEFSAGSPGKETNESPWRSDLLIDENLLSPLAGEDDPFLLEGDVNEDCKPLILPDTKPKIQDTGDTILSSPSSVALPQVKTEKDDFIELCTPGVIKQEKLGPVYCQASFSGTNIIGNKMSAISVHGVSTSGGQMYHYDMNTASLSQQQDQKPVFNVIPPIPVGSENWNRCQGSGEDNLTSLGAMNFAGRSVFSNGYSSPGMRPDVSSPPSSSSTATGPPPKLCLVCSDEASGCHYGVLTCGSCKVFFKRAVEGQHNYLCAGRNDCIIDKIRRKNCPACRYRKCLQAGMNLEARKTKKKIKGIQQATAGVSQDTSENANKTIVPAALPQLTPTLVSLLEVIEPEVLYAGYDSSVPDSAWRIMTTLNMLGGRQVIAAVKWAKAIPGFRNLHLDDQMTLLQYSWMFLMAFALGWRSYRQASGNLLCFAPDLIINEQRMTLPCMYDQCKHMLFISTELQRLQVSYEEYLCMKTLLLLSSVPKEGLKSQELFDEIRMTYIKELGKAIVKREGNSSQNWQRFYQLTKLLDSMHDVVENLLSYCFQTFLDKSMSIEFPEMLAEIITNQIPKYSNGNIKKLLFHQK", "assay": "[18F]-YJH08 biodistribution, dexamethasone treatment study", "type": "in vivo", "details": "20 min after injection", "procedure": "All animal experiments were conducted under the approval from Institutional Animal Care and Use Committee (IACUC) at UCSF. Male nu nu or C57BL6/J mice (4-6 weeks) purchased from Charles River. All the mice were well-housed in the USCF with free access to food and water. […] The mice were treated once daily for three days. At day 3, the mice received the radiotracer after the final gavage. Adrenalectomized mice were purchased from Charles River, and provided drinking water supplemented with NaCl (aq) per instructions.\nFor a broader survey of radiotracer biodistribution post mortem, mice were euthanized after radiotracer injection with CO2(g) asphyxiation and dissected at dedicated time points post injection. The blood and tissues were removed, washed, dried and weighed. The activity of each tissue was measured with a gamma counter. All data was decay corrected. PRISM software was used to express a percentage (% ID/g) of the injected dose per gram of tissue. […] The data are represented as mean standard deviation of the % ID/g. […]\nThe data are presented as a mean±standard deviation of the % ID/g. […] The P value indicates the result of an unpaired, two-tailed Student's t test.", "key": {"[1]": {"details": "mice given dexamethasone 100 mg/kg oral gavage once daily for three days"}, "[2]": {"details": "mice given vehicle by oral gavage once daily for three days"}}, "data": [{"smiles": "COc1cccc2c1-c1ccc3c(c1C(Cc1ccc([18F])cc1)O2)C(C)=CC(C)(C)N3", "note": "(racemic) [[18F]-YJH08, [^18F]-5-(4-fluorobenzyl)-10-methoxy-2,2,4-trimethyl-2,5-dihydro-1H-chromeno[3,4-f]quinoline]", "values": [{"measurement": "radiotracer uptake, Adrenal Gland", "setting": "[1]", "result": "10.40 ± 0.7", "unit": "% ID/g"}, {"measurement": "radiotracer uptake, Blood", "setting": "[1]", "result": "2.95 ± 0.2", "unit": "% ID/g"}, {"measurement": "radiotracer uptake, Bone", "setting": "[1]", "result": "1.25 ± 0.2", "unit": "% ID/g"}, {"measurement": "radiotracer uptake, Brain", "setting": "[1]", "result": "1.31 ± 0.07", "unit": "% ID/g"}, {"measurement": "radiotracer uptake, Heart", "setting": "[1]", "result": "7.57 ± 0.9", "unit": "% ID/g"}, {"measurement": "radiotracer uptake, Kidney", "setting": "[1]", "result": "3.75 ± 0.5", "unit": "% ID/g"}, {"measurement": "radiotracer uptake, Large intestine", "setting": "[1]", "result": "1.77 ± 0.5", "unit": "% ID/g"}, {"measurement": "radiotracer uptake, Liver", "setting": "[1]", "result": "11.43 ± 2.1", "unit": "% ID/g"}, {"measurement": "radiotracer uptake, Lung", "setting": "[1]", "result": "3.92 ± 0.3", "unit": "% ID/g"}, {"measurement": "radiotracer uptake, Muscle", "setting": "[1]", "result": "1.71 ± 0.1", "unit": "% ID/g"}, {"measurement": "radiotracer uptake, Pancreas", "setting": "[1]", "result": "3.33 ± 0.1", "unit": "% ID/g"}, {"measurement": "radiotracer uptake, Small intestine", "setting": "[1]", "result": "34.43 ± 7.2", "unit": "% ID/g"}, {"measurement": "radiotracer uptake, Spleen", "setting": "[1]", "result": "4.23 ± 0.3", "unit": "% ID/g"}, {"measurement": "radiotracer uptake, Stomach", "setting": "[1]", "result": "0.48 ± 0.4", "unit": "% ID/g"}, {"measurement": "radiotracer uptake, Supraspinal BAT", "setting": "[1]", "result": "4.69 ± 0.7", "unit": "% ID/g"}, {"measurement": "radiotracer uptake, Adrenal Gland", "setting": "[2]", "result": "17.29 ± 6.7", "unit": "% ID/g"}, {"measurement": "radiotracer uptake, Blood", "setting": "[2]", "result": "3.98 ± 0.08", "unit": "% ID/g"}, {"measurement": "radiotracer uptake, Bone", "setting": "[2]", "result": "2.17 ± 0.2", "unit": "% ID/g"}, {"measurement": "radiotracer uptake, Brain", "setting": "[2]", "result": "2.05 ± 0.03", "unit": "% ID/g"}, {"measurement": "radiotracer uptake, Heart", "setting": "[2]", "result": "10.66 ± 0.4", "unit": "% ID/g"}, {"measurement": "radiotracer uptake, Kidney", "setting": "[2]", "result": "8.49 ± 1.3", "unit": "% ID/g"}, {"measurement": "radiotracer uptake, Large intestine", "setting": "[2]", "result": "1.57 ± 0.4", "unit": "% ID/g"}, {"measurement": "radiotracer uptake, Liver", "setting": "[2]", "result": "18.46 ± 2.9", "unit": "% ID/g"}, {"measurement": "radiotracer uptake, Lung", "setting": "[2]", "result": "6.26 ± 0.4", "unit": "% ID/g"}, {"measurement": "radiotracer uptake, Muscle", "setting": "[2]", "result": "2.46 ± 0.2", "unit": "% ID/g"}, {"measurement": "radiotracer uptake, Pancreas", "setting": "[2]", "result": "6.22 ± 1.6", "unit": "% ID/g"}, {"measurement": "radiotracer uptake, Small intestine", "setting": "[2]", "result": "19.12 ± 5.7", "unit": "% ID/g"}, {"measurement": "radiotracer uptake, Spleen", "setting": "[2]", "result": "3.79 ± 0.4", "unit": "% ID/g"}, {"measurement": "radiotracer uptake, Stomach", "setting": "[2]", "result": "1.74 ± 0.8", "unit": "% ID/g"}, {"measurement": "radiotracer uptake, Supraspinal BAT", "setting": "[2]", "result": "10.52 ± 2.9", "unit": "% ID/g"}]}]}
